Data reported in US12667570B2, “Small molecule modulators of KSR-bound MEK” (Icahn School of Medicine at Mount Sinai, priority 2020, dated 2026).

Assays:
isolated MEK1 = molecular target: T1, isolated MEK1 (Oryctolagus cuniculus, UniProt P29678, S298N/S299K/Y300F); assay: Bio-layer interferometry (BLI), isolated MEK1; assay type: binding, rabbit; details: read-out: dissociation constant (KD), isolated MEK1
T1 construct: rabbit MEK1 (residues 35-393; Uniprot ID: P29678); hexahistidine tag with TEV-cleavage site (N); made in house; host or cells: SF21 insect cells (baculovirus)
T1 sequence (P29678 35-393 S298N/S299K/Y300F): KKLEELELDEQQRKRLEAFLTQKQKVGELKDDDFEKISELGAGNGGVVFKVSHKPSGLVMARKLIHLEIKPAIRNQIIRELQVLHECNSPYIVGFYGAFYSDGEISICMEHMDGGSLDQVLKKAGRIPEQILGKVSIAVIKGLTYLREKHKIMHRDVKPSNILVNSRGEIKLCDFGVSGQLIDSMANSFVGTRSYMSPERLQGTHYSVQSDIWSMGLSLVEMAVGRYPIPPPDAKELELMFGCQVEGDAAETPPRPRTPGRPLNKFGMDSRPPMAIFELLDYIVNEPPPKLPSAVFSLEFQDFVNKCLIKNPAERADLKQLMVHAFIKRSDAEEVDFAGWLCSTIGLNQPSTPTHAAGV
Procedure: (§1) BLI measurements were performed using an Octet Red96 (Forte Bio, Inc.) system. All experiments were conducted at 25° C. with shaking at 1000 rpm, and in a buffer containing 20 mM Hepes pH 7.5, 200 mM NaCl, 1 mM ATP, 5 mM MgCl2, 0.02% Tween-20, 1% DMSO. […] This amount of immobilization typically achieved 1.5-2.0 nm binding signal. Biosensors were then washed in buffer, treated in a solution of biocytin for 3 min, and then again washed extensively to achieve a normalized baseline signal of ˜0 nm. Following, for kinetic analysis, biosensors were dipped in solutions of free MEK1, BRAF:MEK1, KSR1:MEK1, or KSR2:MEK1. Association was measured for 10 or 15 minutes, following a dissociation phase in buffer of 15 minutes. […] All experiments were performed at least three independent times, with raw data processed and analyzed using global fit binding models in Fortebio software to derive KD (M), Kon(1/M·s), and Kdis (1/s) values. […] One-to-one binding models provided a high agreement with the measured binding signals based on chi-squared and R-squared values. Raw data and fitting, mean and standard deviation determinations, as well as statistical analysis, for KD, kon(1/M·s), kdis(1/s), and τ(min) are included in FIG. 71.

BRAF-MEK1 = molecular target: T2, BRAF-MEK1 (Oryctolagus cuniculus, UniProt P29678, S298N/S299K/Y300F); assay: Bio-layer interferometry (BLI), BRAF-MEK1; assay type: binding, human BRAF; rabbit MEK1; details: read-out: dissociation constant (KD), MEK1-BRAF
T2 construct: human BRAF (residues 432-726; Uniprot ID: P15056); rabbit MEK1 (residues 35-393; Uniprot ID: P29678); hexahistidine tag with TEV-cleavage site (N); made in house; host or cells: SF21 insect cells (baculovirus)
T2 sequence (P29678 35-393 S298N/S299K/Y300F): as above
Procedure: as §1

KSR1-MEK1 = molecular target: T3, KSR1-MEK1 (UniProt P29678+Q8IVT5, S298N/S299K/Y300F); assay: Bio-layer interferometry (BLI), KSR1-MEK1; assay type: binding, human KSR1; rabbit MEK1; details: read-out: dissociation constant (KD), KSR1-MEK1
T3 construct: human KSR1 (residues 591-899; Uniprot ID:Q8IVT5); rabbit MEK1 (residues 35-393; Uniprot ID: P29678); hexahistidine tag with TEV-cleavage site (N); made in house; host or cells: SF21 insect cells (baculovirus)
T3 sequence (Q8IVT5 591-899): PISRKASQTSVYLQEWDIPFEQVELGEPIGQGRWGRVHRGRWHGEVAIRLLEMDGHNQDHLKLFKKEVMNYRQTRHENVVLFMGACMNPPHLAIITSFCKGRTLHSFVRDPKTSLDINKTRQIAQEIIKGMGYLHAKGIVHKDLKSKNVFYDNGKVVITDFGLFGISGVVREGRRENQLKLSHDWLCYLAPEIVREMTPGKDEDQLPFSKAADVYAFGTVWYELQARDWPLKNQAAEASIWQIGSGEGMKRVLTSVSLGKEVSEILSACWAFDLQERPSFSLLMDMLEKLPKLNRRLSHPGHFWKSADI
T3 sequence (P29678 35-393 S298N/S299K/Y300F): as the sequence (P29678 35-393 S298N/S299K/Y300F) above
Procedure: as §1

KSR2-MEK1 = molecular target: T4, KSR2-MEK1 (UniProt P29678+Q6VAB6, S298N/S299K/Y300F); assay: Bio-layer interferometry (BLI), KSR2-MEK1; assay type: binding, human KSR2; rabbit MEK1; details: read-out: dissociation constant (KD), KSR2-MEK1
T4 construct: human KSR2 (residues 634-950; Uniprot ID: Q6VAB6); rabbit MEK1 (residues 35-393; Uniprot ID: P29678); hexahistidine tag with TEV-cleavage site (N); made in house; host or cells: SF21 insect cells (baculovirus)
T4 sequence (Q6VAB6 634-950): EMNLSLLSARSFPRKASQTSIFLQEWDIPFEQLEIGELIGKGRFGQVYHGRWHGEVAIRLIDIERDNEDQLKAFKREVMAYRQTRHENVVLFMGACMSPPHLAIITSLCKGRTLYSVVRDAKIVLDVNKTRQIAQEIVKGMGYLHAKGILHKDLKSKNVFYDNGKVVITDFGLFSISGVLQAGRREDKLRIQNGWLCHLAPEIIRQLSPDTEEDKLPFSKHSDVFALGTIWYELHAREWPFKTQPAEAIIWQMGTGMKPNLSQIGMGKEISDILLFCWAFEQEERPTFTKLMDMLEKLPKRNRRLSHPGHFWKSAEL
T4 sequence (P29678 35-393 S298N/S299K/Y300F): as the sequence (P29678 35-393 S298N/S299K/Y300F) above
Procedure: as §1

KRAS-G12S A549 cells = assay: Long-term clonogenic assay; assay type: cell-based, human; details: 10 nM final concentration, in comparison to amide-linker compounds (1, 3)
Procedure: Cells were plated at a density of 6,000 cells per well in 6-well plates in 3 mL of culture medium. Twenty-four hours after seeding, compounds dissolved in DMSO or DMSO-only vehicles were added directly to the culture media at a 1:1000 dilution. Following 10 days of culture, cells were washed 2× in PBS, fixed in ice-cold methanol for 10 minutes, stained with crystal-violet at room temperature for 10 minutes, and subsequently washed three times in water. Plates were allowed to dry overnight before imagining with an Epson V600 scanner.

human KSR1-luc = molecular target: T5, human KSR1-luc (Homo sapiens, UniProt Q02750+Q8IVT5); assay: Tram-bo BRET buildup curves, KSR1-luc; assay type: binding
T5 construct: expressed in transfected cells; host or cells: HEK293T
Procedure: (§2) Human c-terminal NanoLuc fusions versions of ARAF (Uniprot P10398), BRAF (UniProt P15056), CRAF (Uniprot P04049), KSR1 (Uniprot Q8IVT5), and KSR2 (Uniprot Q6VAB6) were transfected as mentioned above at a concentration of 0.1 μg/mL in combination with 9.9 μg/mL of carrier DNA. All RAF constructs from Promega. […] A 20× tram-bo solution was added to each well to give final concentrations of 4, 1, 0.5, 0.1, 0.05, 0.01, 0.001, 0.0001 μM. […] All data were analyzed using Prism 8 (GraphPad).

human KSR2-luc = molecular target: T6, human KSR2-luc (Homo sapiens, UniProt Q02750+Q6VAB6); assay: Tram-bo BRET buildup curves, KSR2-luc; assay type: binding
T6 construct: expressed in transfected cells; host or cells: HEK293T
Procedure: as §2

[1] = tested on: ARAF-luc, BRAF-luc, and CRAF-luc; assay: Tram-bo BRET buildup curves, RAF family; assay type: binding, human; details: in cells
Procedure: as §2

[2] = molecular target: T7, mouse KSR1-luc (KSR-bound MEK) (UniProt Q02750+Q61097); assay: NanoBRET in-cell steady-state IC50 (competition with tram-bo tracer), KSR1-luc; assay type: binding
T7 construct: expressed in transfected cells; host or cells: HEK293T

KSR1-luc (KSR-bound MEK) = KSR1-luc (KSR-bound MEK) (UniProt Q02750+Q61097); assay: NanoBRET washout experiment, intracellular residence time, KSR1-luc; assay type: binding, mouse; details: BRET build-up with 1 μM tram-bo, […] time course
Procedure: (§3) Specifically, transfections of MEK1-luc and KSR1-luc, and construction of the drug transfer plates were carried out as mentioned above. For washout experiments, cells were first removed from adherent plates by trypsin treatment. Following, cells were harvested, spun, and resuspended in Opti-MEM (270 μL total) in centrifuge tubes at 450,000 cells/tube.

MEK1-luc [3] = molecular target: T8, MEK1-luc (Homo sapiens, UniProt Q02750); assay: NanoBRET washout experiment, intracellular residence time, MEK1-luc; assay type: binding; details: BRET build-up with 1 μM tram-bo, […] time course
Procedure: as §3

BRAF-MEK1 complex [4] = molecular target: BRAF-MEK1 complex (Homo sapiens, UniProt P15056+Q02750, R662A); assay: Co-immunoprecipitation via endogenous MEK1 from HCT116 cells, BRAF; assay type: cell-based; details: 200 nM, 1 hour
KSR1-MEK1 complex = KSR1-MEK1 complex (UniProt Q02750+Q61097, P775N); assay: Co-immunoprecipitation via endogenous MEK1 from HCT116 cells, FLAG-KSR1; assay type: cell-based, mouse KSR1; details: 200 nM, 1 hour
MEK1-luc [5] = molecular target: T8, MEK1-luc; assay: NanoBRET in-cell steady-state IC50 (competition with tram-bo tracer), MEK1-luc; details: IC50 MEK1-luc versus KSR1-luc
HCT 116 = assay: Cell proliferation / viability assay under low-adherence conditions; assay type: cell-based, human
Procedure: A375, A549, HCT116, and SKMEL-239 cells were plated in Corning Costar Ultra-Low Attachment 96-well plates (Reference number 3434). After 24 hours of incubation at 37° C., cells were treated with inhibitors (0.1% DMSO in final volume). Cells were grown for five days, and resazurin sodium salt was added at a final concentration of 0.01 μg/μL. Fluorescence was measured using a Molecular Devices SpectraMax M5 spectrophotometer after a 4-24-hour incubation with resazurin solution. Technical triplicate values were averaged for each experiment, and biological replicate values are represented as average+/−standard deviation. For each cell line, log EC50 values of inhibitors were statistically compared using the extra sum-of-squares F test in GraphPad Prism 8 (FIG. 57, 58, 67, 68, 69).

BRAF-MEK1 complex [6] = molecular target: T9, BRAF-MEK1 complex (Homo sapiens, UniProt P15056+Q02750); assay: Co-immunoprecipitation via endogenous MEK1 from HCT116 cells, BRAF; assay type: cell-based; details: 200 nM, 1 hour, relative to DMSO
T9 construct: IP/WB of endogenous MEK1 from HCT116 cells; endogenous in cells; host or cells: HCT116

MEK1 and MEK2 [7] = assay: In vitro kinase profiling, direct binding assays, MEK1/MEK2; details: 1 μM
Description: (§4) FIG. 65 Trametiglue targets both KSR-MEK and RAF-MEK with unprecedented potency and selectivity via unique interfacial binding interactions.

isolated BRAF or CRAF = assay: In vitro kinase profiling, direct binding assays, BRAF/CRAF; details: 1 μM
Description: as §4

MEK1 and MEK2 [8] = assay: In vitro substrate phosphorylation assays, MEK1/MEK2; assay type: biochemical; details: panel of active kinases
Description: as §4

[9] = tested on: BRAF and CRAF phosphorylation of MEK1; assay: In vitro phosphorylation of MEK1 by upstream kinases; assay type: biochemical; details: MEK1 as substrate
Description: as §4

[10] = tested on: phosphorylated ERK1/2 at residues T202 and Y204 (pERK); assay: Immunoblot of RAS/ERK pathway inhibition; assay type: cell-based, human; details: 1 hour, increasing concentrations
Procedure: Cells were plated at a density of 300,000 cells per well in 6-well plates in 2 mL of culture medium. 24 hours after seeding, cells were treated with compounds or DMSO at a 1:1000 dilution (0.1% DMSO in final volume). […] Samples were normalized to a protein content of 5 μg/μL in 100 μL total volume, and 20 μL of 6×SDS was added. […] Transfers were confirmed using ponceau red, washed, and then blocked for 1 hour with 5% BSA TBS-T, prior to overnight incubation with primary antibodies including phospho-ERK1/2 T202/Y204 and total ERK1/2 (Cell Signaling Technologies (CST) 9101S and 4695S, respectively) in 5% BSA TBS-T. The next day, blots were washed extensively, and incubated in secondary antibody (Anti-Rabbit IgG HRP-Linked CST 7074S).

[11] = BRET buildup, increasing tram-bo
[12] = HCT 116, low-adherence conditions

CC(=O)Nc1cccc(-n2c(=O)n(C3CC3)c(=O)c3c(Nc4ccc(I)cc4F)n(C)c(=O)c(C)c32)c1 [trametinib]
Kd (isolated MEK1): 131 ± 9.4 nM | Kd (BRAF-MEK1): 217 ± 3.2 nM | Kd (KSR1-MEK1): 63.9 ± 4.7 nM | Kd (KSR2-MEK1): 70.4 ± 4.4 nM

CCN(C)S(=O)(=O)Nc1cccc(-n2c(=O)n(C3CC3)c(=O)c3c(Nc4ccc(I)cc4F)n(C)c(=O)c(C)c32)c1 [compound 6, N-(3-(3-cyclopropyl-5-((2-fluoro-4-iodophenyl)amino)-6,8-dimethyl-2,4,7-trioxo-3,4,6,7-tetrahydropyrido[4,3-d]pyrimidin-1(2H)-yl)phenyl)-N′-ethyl(methyl)sulfonamide 2,2,2-trifluoroacetate]
growth inhibition in clonogenic assay (KRAS-G12S A549 cells): enhanced and durable growth inhibition

Cc1c(=O)n(C)c(Nc2ccc(I)cc2F)c2c(=O)n(C3CC3)c(=O)n(-c3cccc(NC(=O)CCOCCOCCNC(=O)CCC4=[N+]5C(=Cc6ccc(-c7ccc[nH]7)n6[B-]5(F)F)C=C4)c3)c12 [tram-bo]
binding to KSR1-luc relative to ARAF-luc, BRAF-luc and CRAF-luc (human KSR1-luc; [11]): ~10 fold | BRET binding signal, KSR1-luc (human KSR1-luc; in cells): strong BRET binding signals | binding to KSR2-luc relative to ARAF-luc, BRAF-luc and CRAF-luc (human KSR2-luc; [11]): ~10 fold | BRET binding signal, KSR2-luc (human KSR2-luc; in cells): strong BRET binding signals | BRET signal, ARAF-luc, BRAF-luc, CRAF-luc [1]: much weaker BRET signals

Cc1c(=O)n(C)c(Nc2ccc(I)cc2F)c2c(=O)n(C3CC3)c(=O)n(-c3cccc(NS(=O)(=O)NC4CC4)c3)c12 [compound 5, N-(3-(3-cyclopropyl-5-((2-fluoro-4-iodophenyl)amino)-6,8-dimethyl-2,4,7-trioxo-3,4,6,7-tetrahydropyrido[4,3-d]pyrimidin-1(2H)-yl)phenyl)cyclopropylaminosulfonamide]
growth inhibition in clonogenic assay (KRAS-G12S A549 cells): enhanced and durable growth inhibition

O=C(c1ccc(F)c(F)c1Nc1ccc(I)cc1F)N1CC(O)([C@@H]2CCCCN2)C1 [cobimetinib]
IC50 on KSR1-luc compared with MEK1-luc ([2]; competition of tram-bo): more potent IC50 values on KSR1-luc over MEK1-luc | dissociation kinetics after washout on KSR1-luc (KSR1-luc (KSR-bound MEK)): dissociated more readily | dissociation kinetics after washout on MEK1-luc (MEK1-luc [3]): dissociated more readily | pulldown of BRAF mutant B2 (R662A) via endogenous MEK1 (BRAF-MEK1 complex [4]): did not alter complex stability | pulldown of KSR1 mutant K1 (P775N) via endogenous MEK1 (KSR1-MEK1 complex): did not alter complex stability | difference in potency between KSR1-luc and MEK1-luc (MEK1-luc [5]): ~20 fold

CNS(=O)(=O)Nc1cccc(-n2c(=O)n(C3CC3)c(=O)c3c(Nc4ccc(I)cc4F)n(C)c(=O)c(C)c32)c1 [trametiglue, N-(3-(3-Cyclopropyl-5-((2-fluoro-4-iodophenyl)amino)-6,8-dimethyl-2,4,7-trioxo-3,4,6,7-tetrahydropyrido[4,3-d]pyrimidin-1(2H)-yl)phenyl)methylaminosulfonamide]
potency and off-rate kinetics compared with trametinib ([2]; KSR-luc or MEK-luc reporters, steady-state and washout): retained similar potency and off-rate kinetics as trametinib | improvement in potency relative to CH5126766 (HCT 116; [12]): ~200 fold | improvement in potency relative to trametinib (HCT 116; [12]): approximately 7 fold | IC50 (HCT 116; Homo sapiens, HCT-116, 120 h, low-adherence conditions, five days): 0.07 ± 0.04 nM | pulldown of wild-type BRAF via endogenous MEK1 (BRAF-MEK1 complex [6]): markedly enhanced capture of BRAF | selectivity in kinase binding experiments (MEK1 and MEK2 [7]): strong selectivity towards MEK1 and MEK2 | direct interaction with isolated BRAF or CRAF (isolated BRAF or CRAF): no direct interactions | inhibition of MEK1 and MEK2 substrate phosphorylation (MEK1 and MEK2 [8]): inhibited MEK1 and MEK2 | inhibition of MEK1 phosphorylation by upstream kinases [9]: inhibition of both BRAF and CRAF phosphorylation of MEK1 | growth inhibition in clonogenic assay (KRAS-G12S A549 cells): enhanced and durable growth inhibition | inhibition of RAS-MAPK signaling measured by pERK, relative to trametinib [10]: higher potency inhibitor of RAS-MAPK signaling

CNS(=O)(=O)Nc1nccc(Cc2c(C)c3ccc(Oc4ncccn4)cc3oc2=O)c1F [CH5126766]
pulldown of wild-type BRAF via endogenous MEK1 (BRAF-MEK1 complex [6]): enhances interactions between endogenous BRAF and MEK1
